Laboratory results taken from a melting point compilation (Tetko et al.; mined from patent text by program, amines drawn as free bases though some values may be those of a salt).

Row | melting point | SMILES
1 | 130 °C | CC(C)(C)OC(=O)C[C@H](NC(=O)c1ccc(CCC(=O)NC2=NCCCN2)s1)c1ccc2c(c1)OCO2
2 | 90 to 95 °C | NS(=O)(=O)N(c1ccccc1)c1cccc(C(c2c(O)c3c(oc2=O)CCCCCC3)C2CC2)c1 (configuration not stated)
3 | 75 to 80 °C | CCCNC(=O)c1ccc2c(c1)N(C(C)CN1CCCC1)c1ccccc1S2 (racemic)
4 | 252 to 255 °C | CC(=O)N1CCC2(CC1)CSC1=C(O2)c2ccccc2C(=O)C1=O
5 | 84 °C | CCCCCCCCOc1ccc(-c2ccc(C3CCC(CCC)C3)cc2)cc1 (configuration not stated)
6 | 104 to 107 °C | COc1ccc(N2CCN(c3ccc(OC)nc3-c3ccc(OCC(F)(F)F)cc3)CC2)cc1
7 | 152 to 153 °C | CC(C)(C)OC(=O)N1CCC(n2nc(-c3c(-c4ccccc4)nn4ccccc34)ccc2=O)CC1
8 | 152 to 153 °C | CCCCCCCCCCCCc1c[nH]c(C(=O)O)c1
9 | 135 to 136 °C | CC1CC(=O)C(C(=O)c2ccc(C(F)(F)F)cc2[N+](=O)[O-])C(=O)O1 (configuration not stated)
10 | 62 to 68.5 °C | CCC1OCC(O)CO1 (configuration not stated)
11 | 104 to 105 °C | O=C1CCN(Cc2ccc(C(F)(F)F)cc2C(F)(F)F)CC1C(c1ccc(F)cc1)c1ccc(F)cc1 (configuration not stated)
12 | 116 to 117 °C | COc1ccc(C2CCN(C(=O)C(N)=O)CC2)cc1C=C1CCCC1
13 | 186 to 188 °C | CCOC(=O)Cc1c(C(=O)c2ccc(Cl)cc2)[nH]c2cc(Cl)ccc12
14 | 164 to 165 °C | CCCOc1ccc(NC2=C(C(=O)OCC)CCC2)cc1C1=NC(=O)C2=NN=NC2=N1
15 | 102 to 104 °C | CC(CNC(=O)c1ccc(Cl)nc1)Cn1ccnc1 (configuration not stated)
16 | 174 to 175 °C | CSc1cc2c(cc1C(F)(F)F)N(C(=O)Nc1cccc(C(=O)NC3CCN(Cc4ccccc4)C3)c1)CC2 (configuration not stated)
17 | 156 to 158 °C | O=C1N(N2CCCCC2)c2ccccc2C1(O)Cc1ccncc1 (configuration not stated)
18 | 240 to 243 °C | CC1Cc2c(N3CCN(C)CC3)c(F)c(N)c3c(=O)c(C(=O)O)cn1c23 (configuration not stated)
19 | 146 to 148 °C | Cc1ccc(-n2nc(N3CCN(C(N)=O)CC3)c3ccccc32)cc1
20 | 145 to 147 °C | CSc1ccc(/C=C2/C(C)=C(CCCN(O)C(N)=O)c3cc(F)ccc32)cc1
21 | 206 to 208 °C | CC(=O)c1ccc(O)c(CS(C)(=O)=O)c1
22 | 267 °C | CC(=O)N1CC(=O)NC(=O)N1c1cc(Cl)c(Oc2ccc(S(C)(=O)=O)cc2)c(Cl)c1
23 | 242 to 245 °C | CN(Cc1ccc(NC(=O)C2=Cc3cc(-c4ccc5c(c4)OCCCO5)ccc3S(=O)(=O)CC2)cc1)C1CCOCC1
24 | 161 to 163 °C | CCOC(=O)C(C)=NNc1ccc(Cl)c(F)c1

Row | melting point | SMILES
25 | 89 to 94 °C | CC(C)[C@@H](CO)NS(=O)(=O)c1ccc(Br)cc1
26 | 108 to 110 °C | CC(C)(C)OC(=O)N1CCC[C@@H](Nc2nccc(-c3c(-c4cccc(C#N)c4)nc4sccn34)n2)C1
27 | 171 to 172 °C | CCOC(=O)c1[nH]c2ccc(Cl)cc2c1-c1ccccc1
28 | 140 to 141 °C | CCCN(C(=O)Oc1ccccc1)C1Cc2ccc(-c3ccc(=O)[nH]n3)cc2C1 (configuration not stated)
29 | 181 to 183 °C | NC(=O)c1ccc(C2CCCc3cncn32)cc1 (configuration not stated)
30 | 169 to 170 °C | CC(C)CCCC(C)C1CCC2C3C(=O)C=C4CC(O)CCC4(C)C3CCC12C (configuration not stated)
31 | 196 to 197 °C | CC(C)(C)COc1ccc(NC(=O)c2cnn(-c3ccc(F)cc3)c2)cc1C#N
32 | 133 to 134 °C | CCOCc1cccc2cc(C(N)=O)oc12
33 | 145 to 152 °C | CCCN(CCCc1c[nH]c2ccc(OC)cc12)C1COc2c(F)ccc(C(N)=O)c2C1 (configuration not stated)
34 | 65 °C | N=C(c1cc(Cl)ccc1N)C1CCCCC1
35 | 177 to 178 °C | CCCn1nc(-c2ccc(O)c(F)c2)c2cccc(-c3ccccc3)c21
36 | 157 to 158 °C | COC(=O)CCc1oc(Sc2ccc(O)cc2)nc1-c1ccccc1
37 | 164 to 166 °C | O=C(NCC1CCN(C(c2ccccc2)c2ccccc2)CC1)c1cc(F)ccc1[N+](=O)[O-]
38 | 130 to 132 °C | CCOC(=O)C=Cc1ccc(OC)c(-c2cc3c(cc2OCCCCCC(=O)OC(C)(C)C)C(C)(C)CCC3(C)C)c1
39 | 130 to 133 °C | C#CCN(Cc1ccc2nc(C)[nH]c(=O)c2c1)c1ccc(C(=O)NCC2CCNCC2)cc1
40 | 88 °C | CCCCCN(O)C(=O)Nc1ccc(Cl)c(Cl)c1
41 | 59 to 60 °C | CCCCCCCCCCc1nc(N(C)C)nc(OC)c1O
42 | 109 to 111 °C | CC(=O)ON1C(C)(C)CC2(CC1(C)C)OCC(C)(C)CO2
43 | 200 °C | CC(=O)Nc1ccc(O[C@@H]2CNC[C@H]2O)cc1 (relative stereo)
44 | 215 to 217 °C | CCn1c(C)c(C2(c3ccc(OC)cc3OC)OC(=O)c3cc(N(C)C)ccc32)c2ccccc21 (configuration not stated)
45 | 63 to 65 °C | Cc1ccc(C)n1CCNC(=O)CN(C)C
46 | 119 °C | CN(C)c1ccc(-c2cccc(OC3SCC(O)C(O)C3O)c2)cn1 (configuration not stated)
47 | 131 to 134 °C | CN1CCCC1CCNc1ncc2c(c1C#N)-c1ccccc1C(c1ccc(Cl)c(Cl)c1)C2 (configuration not stated)

Further lines, the compound ahead of its results:

Row | SMILES | melting point
48 | COC(=O)C(OC)C(=S)Nc1cc(Cl)cc(Cl)c1 (configuration not stated) | 144 to 147 °C
49 | Nc1ccc(-c2ccncc2)cn1 | 192 to 195 °C
50 | CC(C)CNC(=O)C=Cc1ccc(OCc2ccccc2)c([N+](=O)[O-])c1 | 166 to 167 °C
51 | COC(=O)c1cc(-c2ccc(F)c(C)c2)nn(Cc2ccccc2)c1=O | 109 to 110 °C
52 | C[C@@H](n1cnc2c(Br)cc(Br)cc2c1=O)[C@](O)(Cn1cncn1)c1ccc(F)cc1F | 134 to 135 °C
53 | CC(=O)Oc1ccccc1C(=O)Nc1ncc(S(C)(=O)=O)s1 | 173 to 175 °C
54 | O=C1C=C(Nc2cccc(F)c2)CCN1 | 188 to 190 °C
55 | NS(=O)(=O)c1nnc(NC(=O)c2ccccc2O)s1 | > 250 °C
56 | O=C(Nc1cnc2scnc2c1)c1cc2cc(F)ccc2n1Cc1cccc(F)c1 | 250 to 251 °C
57 | c1ccc(Nc2nc(N3CCN(c4ccccc4)CC3)nc3c2SCC3)cc1 | 174 to 175 °C
58 | COCCNC(=O)c1cccc(-c2cccc3cc(Cc4cc(F)cc(Cl)c4)sc23)c1F | 124 to 125 °C
59 | CC(O)c1ccc(C(C)Oc2cncc(C(=O)Nc3ccc(C#N)cc3)c2)cc1 (configuration not stated) | 179 to 181 °C
60 | CC(C)OC(=O)c1cc(N=C=O)c(F)cc1Cl | 41 to 43 °C
61 | CC(C)n1nc(-c2cnc(NCc3ccccn3)nc2-c2ccccc2)ccc1=O | 143 to 144 °C
62 | COc1ccc2c(SC(C)(C)C)c(C(C)C(C)(C)C(=O)O)[nH]c2c1 (configuration not stated) | 133 °C
63 | Cc1cccc(-c2nccc(Cl)n2)c1 | 74 to 75 °C
64 | COc1ccc2c(c1)C(=O)N(c1ccc3cccnc3c1)C2 | 220 to 223 °C
65 | COc1cc(OCc2ccccc2)ccc1S(=O)(=O)Cl | 95 °C
66 | CC(C)CCC(=O)NC(C)(Cc1c[nH]c2ccccc12)C(=O)NC(Cc1ccccc1)C(N)=O (racemic) | 170 to 171 °C
67 | CN(c1c(Cl)ccc2cc(C(N)=S)[nH]c12)S(=O)(=O)c1cccs1 | 200 to 201 °C
68 | Cc1cc(C)cc(Sc2c(C(C)C)c(=O)[nH]c(=O)n2CC#Cc2ccccc2)c1 | 113 to 115 °C
69 | O=[N+]([O-])c1ccc(OCCCCl)cc1 | 37 to 39 °C
70 | CC(C)COc1ccc(F)cc1OCCOS(C)(=O)=O | 53 to 55 °C
71 | CCCN1C(=O)CN=C(c2cccc(C(F)(F)F)c2)c2cc(OC)c(OC)cc21 | 135 to 137 °C
72 | COCc1cc(C2=NOC(c3cc(Cl)cc(Cl)c3)(C(F)(F)F)C2)ccc1C(=O)NC(=N)OC (configuration not stated) | 132 to 134 °C

Row | SMILES | melting point
73 | CC(C)(C)C(NC(=O)Cc1ccc(Cl)cc1)NC(=NC#N)Nc1cccc2cnsc12 (configuration not stated) | 135 to 137 °C
74 | NC1=Nc2cc(Cl)ccc2Nc2cscc21 | 239 to 240 °C
75 | CNC(=O)C(C)Oc1ccc(Oc2ccc(C(F)(F)F)cc2)cc1 (configuration not stated) | 129 to 133 °C
76 | CCOC=Nc1c(SC(F)(F)F)c(C#N)nn1-c1c(Cl)cc(C(F)(F)F)cc1Cl | 68 °C
77 | O=C(O)CCc1ccc(CCNS(=O)(=O)c2ccccc2)cc1 | 102 to 103 °C
78 | Cc1cc(C)c(S(=O)(=O)OS(=O)(=O)c2c(C)cc(C)cc2C)c(C)c1 | 194 to 198 °C
79 | COC(=O)c1cc(-c2ccccc2)cc2c1C(C)(C)CCC2(C)C | 118 °C
80 | COc1cc2c(CCN)c[nH]c2cc1F | 114 to 117 °C
81 | CCCCCCCCCCCCCCCCCCOc1cc(OCCCOc2ccccc2)cc(C(=O)OCc2ccccc2)c1 | 46 to 47 °C
82 | CCOP(=O)(Cc1nnc2c(=O)[nH]c3ccc(Cl)cc3n12)OCC | 223 to 227 °C
83 | CCCOc1ccc(Cl)c2c(=O)c3ccccc3sc12 | 102 to 103 °C
84 | Cc1ccc(S(=O)(=O)N(C)c2cccc(-c3ccnc4c(C(=O)c5ccccc5)cnn34)c2)cc1 | 170 to 171 °C
85 | COC(=O)c1ccc(N(N)C(=O)c2ccc(Cl)c(S(N)(=O)=O)c2)c([N+](=O)[O-])c1 | 144 to 147 °C
86 | COc1ccc(-c2ncnc(C(F)(F)F)c2Cl)cc1 | 104 to 106 °C
87 | Cc1cc(C)c(C(O)P(=O)(c2ccccc2)c2ccccc2)c(C)c1 (configuration not stated) | 152 to 153 °C
88 | Nc1ccccc1Nc1ccc(C(c2ccc(Nc3ccccc3N)cc2)(C(F)(F)F)C(F)(F)F)cc1 | 150 to 152 °C
89 | COc1cc(Br)c(Nc2nc(C)nc(-c3ccccc3C(F)(F)F)c2[N+](=O)[O-])c(OC)c1 | 147 to 148 °C
90 | CC(C)(C)c1ccc(OP2N(c3ccccc3)P(Oc3ccc(C(C)(C)C)cc3C(C)(C)C)N2c2ccccc2)c(C(C)(C)C)c1 (configuration not stated) | 162 to 166 °C
91 | CC(C)n1nc(-c2c(-c3ccccc3)nn3ccc(OCc4ccccc4)cc23)ccc1=O | 168 °C
92 | COC(=O)C1CN(C)CCC1c1ccc(Cl)c(Cl)c1 (configuration not stated) | 70 to 75 °C
93 | COC(=O)c1ccc(Cl)cc1NS(C)(=O)=O | 126 to 128 °C
94 | CCCCCCc1cnc(-c2ccc(F)cc2)nc1 | 39 °C
95 | Cc1cc(C)c(CN2CCN(C)CC2)c(C)c1C=O | 90 °C
96 | Fc1cc(C(Cl)(Cl)Cl)c(Cl)c(C(Cl)Cl)c1Cl | 74 to 76 °C
97 | NS(=O)(=O)c1ccc(-n2nc(C(F)(F)F)cc2-c2ccc(-c3ccco3)cc2)cn1 | 140 to 170 °C
